Results taken from patent US10106853B2, “CUL4B as predictive biomarker for cancer treatment” (CORNELL UNIVERSITY, priority 2012, dated 2018).

Target: T1, Top1 (Homo sapiens, UniProt P11387)
T1 construct: CPT-induced TOP1 degradation in breast cancer cell lines; host or cells: human breast cancer cell lines BT474, BT20, MCF-7, MDA-MB-231, T47D, Sk-Br-3 (MCF-10A as control)
T1 sequence (P11387 1-765): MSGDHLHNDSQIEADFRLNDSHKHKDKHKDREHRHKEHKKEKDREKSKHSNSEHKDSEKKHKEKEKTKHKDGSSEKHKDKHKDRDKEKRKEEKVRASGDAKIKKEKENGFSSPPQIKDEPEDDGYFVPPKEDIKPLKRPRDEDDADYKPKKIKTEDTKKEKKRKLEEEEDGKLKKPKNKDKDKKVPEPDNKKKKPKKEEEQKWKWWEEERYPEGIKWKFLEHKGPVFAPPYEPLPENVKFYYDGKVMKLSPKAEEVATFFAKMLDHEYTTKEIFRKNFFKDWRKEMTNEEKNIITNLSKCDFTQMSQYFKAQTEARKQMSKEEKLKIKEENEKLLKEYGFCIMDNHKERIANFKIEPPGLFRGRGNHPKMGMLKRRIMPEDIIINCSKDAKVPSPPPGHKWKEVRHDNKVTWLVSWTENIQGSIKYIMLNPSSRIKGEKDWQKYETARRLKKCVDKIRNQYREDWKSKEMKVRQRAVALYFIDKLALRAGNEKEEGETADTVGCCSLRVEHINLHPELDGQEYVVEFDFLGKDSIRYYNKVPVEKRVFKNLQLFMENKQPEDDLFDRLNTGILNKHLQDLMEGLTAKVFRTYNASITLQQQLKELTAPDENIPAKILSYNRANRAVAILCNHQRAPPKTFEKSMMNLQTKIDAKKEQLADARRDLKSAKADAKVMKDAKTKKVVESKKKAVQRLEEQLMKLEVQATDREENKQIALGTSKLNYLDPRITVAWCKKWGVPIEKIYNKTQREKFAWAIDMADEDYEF
Assay: CPT-induced TOP1 down regulation assay (immunoblotting)
Assay type: cell-based
Method: FIG. 1. CPT-induced TOP1 degradation in breast cancer cell lines. A) Expression of endogenous CUL4A and 4B in breast cancer cell lines. Total cell lysates were prepared from the indicated breast cancer cell lines and subjected to SDS PAGE and immunoblotting with antibodies against CUL4A, 4B and α-tubulin. The non-cancerous MCF-10A cell line was used as a control for comparison. B) CPT-induced TOP1 degradation in breast cancer cell lines. Cells were treated with 12.5 μM CPT or 1% DMSO for 4 hours, replenished with CPT-free fresh medium and incubated at 37° C. for 30 minutes to reverse the formation of TOP1 cleavable complex. Cells were then lysed and immunoblotted with the TOP1 and α-tubulin antibodies.
FIG. 2. CUL4B interacted with Top1 and induced Top1 degradation in the presence of CPT. A) Knockdown of CUL4B impaired CPT-induced Top1 degradation. BT474 cells were infected with lentiviral shCUL4B, shCUL4A or control non-targeting shRNA, and selected for stable CUL4B^k/d or CUL4A^k/d cells upon treatment with puromycin. Following treatment with CPT (50 μM) for 1 hour, cells were replenished with CPT-free fresh medium and incubated at 37° C. for 30 minutes. Top1 degradation was assessed by immunoblotting with an anti-Top1 antibody. Levels of α-tubulin were measured as a loading control. B) Association of CUL4B with Top1 following CPT treatment. BT474 cells were treated with proteosome inhibitor MG132 (15 μM) for 3 hours, and were subjected to crosslinking with 0.2 mM Dithiobis[succinimidyl propionate](DSP) for the last 30 min at room temperature. Cell lysates were prepared, and immunoprecipitated with the anti-Top1 or anti-CUL4B antibodies, and then immunoblotted using antibodies against CUL4B or Top1, respectively. IgG immunoprecipitates served as the negative control. C) Knockdown of CUL4B using a second shCUL4B-2 impaired CPT-induced Top1 degradation. BT474 cells were infected with lentiviral shCUL4B-2, shCUL4A-2 or control non-targeting shRNA and selected for stable CUL4B^k/d or CUL4A^k/d cells upon treatment with puromycin. Following treatment with CPT (50 μM) for 1.5 hr, cells were replenished with CPT-free fresh medium and incubated at 37° C. for 30 min. Top1 degradation was assessed by immunoblotting with the anti-Top1 antibody. Levels of α-tubulin were measured as a loading control. D) CUL4B inactivation sensitized BT474 cells to cytotoxic killing by camptothecin. BT474, BT474-CUL4A^k/d or BT474-CUL4B^k/d cells were synchronized with 1 μM nocodazole for 13 hours released in fresh medium, treated with the indicated concentrations of CPT for three days, and subjected to the XTT assay to measure the cytotoxic responses to CPT. […] The bars indicate the S.E. of six independent experiments. Statistical significance in cellular response to CPT between control BT474 cells and CUL4A^k/d or CUL4B^k/d cells were assessed by a two-tailed unpaired student t-test (***: p<0.001). The same results were obtained with a second lentiviral shRNA for CUL4A and CUL4B, as well as in T47D breast cancer cells. E, F) Knockdown of CUL4B increased the sensitivity of T47D cells to camptothecin. […] Statistical significance in cellular response to camptothecin between control cells and CUL4A^k/d or CUL4B^k/d BT474 cells are assessed by student's t-test.
CPT-induced Top1 degradation was monitored by immunoblotting of the alkaline lysates. […]

Compound	Effect of shRNA knockdown on CPT-induced Top1 degradation (BT474 cells, lentiviral shRNA, CPT 50 μM, 1 to 1.5 hr)	CPT-induced Top1 degradation compared to control (shCtrl) (CUL4A knockdown BT474 cells, CPT 50 μM, 1 hour)	CPT-induced Top1 degradation (CUL4B-silenced (CUL4B k/d) BT474 cells, CPT 50 μM, 1 hour)	Top1 degradation following treatment with CPT (breast cancer cells exhibiting elevated levels of CUL4B expression, 12.5 μM CPT, 4 hours)
shCUL4B: lentiviral shRNA CUL4B sequence purchased from Sigma Aldrich, reduces CUL4B expression (CCGGGCAGAATTTAAAGAGGGTAAACTCGAGTTTACCCTCTTTAAATTCTGCTTTTT)	impaired			
CC[C@@]1(O)C(=O)OCc2c1cc1n(c2=O)Cc2cc3ccccc3nc2-1 [CPT, (S)-4-ethyl-4-hydroxy-1H-pyrano[3′,4′:6,7]indolizino[1,2-b]quinoline-3,14-(4H, 12H)-dione]		no effect	abolished	eliminated or markedly destroyed Top1
